Data as given in ChEMBL document CHEMBL1806350, “Probes for narcotic receptor mediated phenomena. 43. Synthesis of the ortho-a and para-a, and improved synthesis and optical resolution of the ortho-b and para-b oxide-bridged phenylmorphans: compounds with moderate to low opioid-receptor affinity” (Bioorg Med Chem, 2011).

Columns and labels:
[1] = target: Delta-type opioid receptor (Homo sapiens, UniProt P41143); experiment: Displacement of [125I]IOXY from human delta opioid receptor expressed in CHO cells coexpressing human recombinant DOR after 2 hrs by liquid scintillation counting; assay type: cell-based
Delta-type opioid receptor, sequence (P41143 whole entry): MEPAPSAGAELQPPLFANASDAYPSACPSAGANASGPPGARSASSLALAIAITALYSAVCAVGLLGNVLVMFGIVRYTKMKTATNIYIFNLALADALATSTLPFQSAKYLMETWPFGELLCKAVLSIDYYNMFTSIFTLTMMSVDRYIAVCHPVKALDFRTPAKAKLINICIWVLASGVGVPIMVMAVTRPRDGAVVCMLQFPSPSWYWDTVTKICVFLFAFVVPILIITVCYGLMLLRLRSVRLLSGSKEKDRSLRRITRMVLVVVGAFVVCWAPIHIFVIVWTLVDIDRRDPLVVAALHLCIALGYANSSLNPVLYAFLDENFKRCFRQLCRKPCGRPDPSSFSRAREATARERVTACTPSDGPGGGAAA

[2] = target: T1, Kappa-type opioid receptor (Homo sapiens, UniProt P41145); experiment: Displacement of [125I]IOXY from human kappa opioid receptor expressed in CHO cells coexpressing human recombinant KOP after 2 hrs by liquid scintillation counting; assay type: cell-based
T1 sequence (P41145 whole entry): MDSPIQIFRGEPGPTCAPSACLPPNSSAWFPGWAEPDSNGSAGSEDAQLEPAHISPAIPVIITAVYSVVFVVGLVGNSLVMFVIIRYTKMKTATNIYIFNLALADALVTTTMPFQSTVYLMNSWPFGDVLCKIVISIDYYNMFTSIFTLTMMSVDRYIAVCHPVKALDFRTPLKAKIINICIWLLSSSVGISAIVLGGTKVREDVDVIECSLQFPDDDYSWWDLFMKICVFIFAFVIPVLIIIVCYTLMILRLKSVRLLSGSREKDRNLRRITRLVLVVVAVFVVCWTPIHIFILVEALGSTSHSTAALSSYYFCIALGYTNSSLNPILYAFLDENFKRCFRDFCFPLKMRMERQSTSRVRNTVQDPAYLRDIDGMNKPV

Mu-type opioid receptor [3] = target: T2, Mu-type opioid receptor (Homo sapiens, UniProt P35372); experiment: biochemical; assay type: cell-based, CHO
T2 sequence (P35372 whole entry): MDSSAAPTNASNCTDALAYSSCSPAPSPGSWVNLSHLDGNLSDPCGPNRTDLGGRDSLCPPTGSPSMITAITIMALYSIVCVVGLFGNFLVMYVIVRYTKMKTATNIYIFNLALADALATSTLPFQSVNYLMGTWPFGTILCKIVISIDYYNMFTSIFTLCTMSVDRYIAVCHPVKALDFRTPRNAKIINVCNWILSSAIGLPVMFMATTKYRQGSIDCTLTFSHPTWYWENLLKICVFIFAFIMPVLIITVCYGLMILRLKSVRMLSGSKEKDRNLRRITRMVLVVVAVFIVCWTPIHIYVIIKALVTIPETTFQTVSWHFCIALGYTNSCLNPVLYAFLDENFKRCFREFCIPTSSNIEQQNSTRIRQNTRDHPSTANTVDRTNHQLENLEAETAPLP

Mu-type opioid receptor [4] = target: T2, Mu-type opioid receptor; details: CHO
Description: Antagonist activity at human mu opioid receptor expressed in CHO cells coexpressing human recombinant MOR after 3 hrs by [35S]GTPgammaS binding assay

[5] = target: T1, Kappa-type opioid receptor; details: CHO
Description: Antagonist activity at human kappa opioid receptor expressed in CHO cells coexpressing human recombinant KOP after 3 hrs by [35S]GTPgammaS binding assay

| Compound | Ki [1] [µM] | Ki [2] [nM] | Ki (Mu-type opioid receptor [3]) [nM] | Ke (Mu-type opioid receptor [4]) [nM] | Ke [5] [nM] | Ki ([1]; cho) [µM] | Ki ([2]; cho) [nM] | Ki (Mu-type opioid receptor [3]; cho) [nM] |
| --- | --- | --- | --- | --- | --- | --- | --- | --- |
| Oc1ccc2c(c1)[C@@]13CCN(CCc4ccccc4)[C@@H](CC[C@H]1O2)C3 | > 5 | 102 | 352 | 227 | 103 |  |  |  |
| Oc1ccc2c(c1)[C@]13CCN(CCc4ccccc4)[C@H](CC[C@H]1O2)C3 (racemic) | > 4.9 | 98 | 486 | 23 | 46 |  |  |  |
| CN1CC[C@]23C[C@H]1CC[C@H]2Oc1ccc(O)cc13 (racemic) | > 4.9 | > 8600 | > 2800 |  |  |  |  |  |
| CN1CC[C@]23C[C@H]1CC[C@H]2Oc1c(O)cccc13 (racemic) | > 4.9 | 7500 | > 2800 |  |  |  |  |  |
| Oc1cccc2c1O[C@@H]1CC[C@H]3C[C@@]21CCN3CCc1ccccc1 | > 5 | 42 | 49 | 31 | 22 |  |  |  |
| Oc1cccc2c1O[C@@H]1CC[C@@H]3C[C@]21CCN3CCc1ccccc1 (racemic) | > 4.9 | 171 | 167 | 274 | 163 |  |  |  |
| Oc1ccc2c(c1)[C@]13CCN(CCc4ccccc4)[C@H](CC[C@@H]1O2)C3 | > 5 | 199 | 250 | 47 | 100 |  |  |  |
| Oc1cccc2c1O[C@H]1CC[C@@H]3C[C@]21CCN3CCc1ccccc1 |  |  |  | 328 | 761 | > 5 | 367 | 384 |
